Data set [1] can be described thus: Solubility of compound in phosphate buffer at 15 uM. It is filed as physicochemical.
A short description of data set [2]: Solubility of compound in phosphate buffer at 100 uM. It is filed as physicochemical.
Data set [3] concerns the target T1, Telomeric repeat-binding factor 2-interacting protein 1 (Homo sapiens, UniProt Q9NYB0).
T1 sequence (Q9NYB0 whole entry): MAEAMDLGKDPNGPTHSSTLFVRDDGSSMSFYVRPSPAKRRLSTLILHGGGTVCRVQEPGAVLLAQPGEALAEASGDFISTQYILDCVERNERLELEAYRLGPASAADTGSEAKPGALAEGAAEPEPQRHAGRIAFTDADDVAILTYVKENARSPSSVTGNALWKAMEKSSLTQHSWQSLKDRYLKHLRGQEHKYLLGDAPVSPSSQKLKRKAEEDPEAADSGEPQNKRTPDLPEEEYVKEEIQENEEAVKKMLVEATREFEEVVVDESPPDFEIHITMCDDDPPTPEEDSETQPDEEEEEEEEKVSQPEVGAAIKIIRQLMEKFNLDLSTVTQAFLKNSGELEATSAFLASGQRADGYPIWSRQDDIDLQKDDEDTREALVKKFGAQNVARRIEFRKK
Briefly: Competitive binding to RAP1 (unknown origin) incubated for 1 hr by fluorescence polarization-based binding assay.

Take `C#CC[C@@H](NC(=O)[C@H](CCCCN)NC(=O)[C@H](Cc1ccccc1)NC(=O)[C@H](C)NC(=O)[C@H](CCCCN=[N+]=[N-])NC(=O)[C@H](CCCCN)NC(=O)[C@H](CC(C)C)NC(=O)[C@@H](NC(=O)[C@H](CCSC)NC(=O)[C@H](CCSC)NC(=O)CNC(=O)[C@@H](NC(=O)[C@@H](NC(=O)[C@@H](NC(C)=O)[C@@H](C)O)[C@@H](C)O)[C@@H](C)CC)[C@@H](C)O)C(=O)N[C@@H](CC(C)C)C(=O)N[C@@H](CO)C(N)=O`: the solubility entry in data set [1] is “Insoluble”.
`CC[C@@H](C)[C@H](NC(=O)[C@@H](NC(=O)[C@@H](NC(C)=O)[C@@H](C)O)[C@@H](C)O)C(=O)NCC(=O)N[C@@H](CCSC)C(=O)N[C@@H](CCSC)C(=O)N[C@H](C(=O)N[C@@H](CC(C)C)C(=O)N[C@@H](CCCCN)C(=O)N[C@@H]1CCCCn2cc(nn2)C[C@H](C(=O)N[C@@H](CC(C)C)C(=O)N[C@H](CO)C(N)=O)NC(=O)[C@@H](CCCCN)NC(=O)[C@@H](Cc2ccccc2)NC(=O)[C@H](C)NC1=O)[C@@H](C)O` (stereo in doubt): the solubility entry in data set [2] was “soluble”.
As to Ac-TTIGMKTLKAAFKT-NH2, the IC50 in data set [3] was over 200 µM.
